PubChem BioAssay (NCI)
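96-well plates; 48 h exposure; 5 concentrations. Endpoints by linear interpolation between flanking doses. Not reached: highest tested concentration assigned. GI50 = concentration required for 50% inhibition of growth. TGI denotes the concentration required for complete inhibition of growth.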

Experiments:
Test in all cases: NCI anticancer screen, dose series, 48 h
[1] = tested on: UACC-62 melanoma
[2] = tested on: MALME-3M melanoma
[3] = tested on: SK-MEL-5 melanoma
[4] = tested on: CCRF-CEM leukemia
[5] = tested on: LOX IMVI melanoma
[6] = tested on: MDA-MB-435
[7] = tested on: UO-31 renal
[8] = tested on: SF-539 CNS
[9] = tested on: DU-145 prostate
[10] = tested on: MOLT-4 leukemia
[11] = tested on: HS 578T breast
[12] = tested on: OVCAR-3 ovarian
[13] = tested on: HL-60(TB) leukemia
[14] = tested on: CAKI-1 renal
[15] = tested on: PC-3 prostate
[16] = tested on: MDA-MB-231 breast
[17] = tested on: NCI-H460 lung
[18] = tested on: HOP-62 NSCLC
[19] = tested on: NCI-H226 lung
[20] = tested on: HOP-92 NSCLC
[21] = tested on: OVCAR-4 ovarian
[22] = tested on: OVCAR-8 ovarian
[23] = tested on: U251 CNS
[24] = tested on: HCC-2998 colon
[25] = tested on: HCT-15 colon
[26] = tested on: SNB-19 CNS
[27] = tested on: SK-OV-3 ovarian
[28] = tested on: SF-268 CNS
[29] = tested on: SW-620 colon
[30] = tested on: IGROV1 ovarian
[31] = tested on: ACHN renal
[32] = tested on: 786-0 renal
[33] = tested on: M14 melanoma
[34] = tested on: RPMI-8226 leukemia
[35] = tested on: RXF 393 renal
[36] = tested on: SF-295 CNS
[37] = tested on: TK-10 renal
[38] = tested on: K-562 leukemia
[39] = tested on: NCI-H522 lung
[40] = tested on: COLO 205 colon
[41] = tested on: SK-MEL-28 melanoma
[42] = tested on: SNB-75 CNS
[43] = tested on: NCI-H23 lung
[44] = tested on: MDA-MB-468 breast
[45] = tested on: BT-549 breast
[46] = tested on: NCI/ADR-RES ovarian
[47] = tested on: A498 renal
[48] = tested on: SN12C renal
[49] = tested on: HCT-116 colon
[50] = tested on: SK-MEL-2 melanoma
[51] = tested on: MCF7 breast
[52] = tested on: KM12 colon
[53] = tested on: EKVX NSCLC
[54] = tested on: HT29 colon
[55] = tested on: SR leukemia
[56] = tested on: A549 NSCLC
[57] = tested on: OVCAR-5 ovarian

Structure (SMILES): CNc1nc2ccccc2n2c(-c3ccc(O)c(O)c3)cnc12
- GI50 [1]: < 10 nM
- TGI [1]: 5090 nM
- GI50 [2]: < 10 nM
- TGI [2]: 19300 nM
- GI50 [3]: < 10 nM
- TGI [3]: 14.2 nM
- GI50 [4]: < 10 nM
- TGI [4]: 1770 nM
- GI50 [5]: < 10 nM
- TGI [5]: 13700 nM
- GI50 [6]: < 10 nM
- TGI [6]: 1290 nM
- GI50 [7]: < 10 nM
- TGI [7]: 15900 nM
- GI50 [8]: < 10 nM
- TGI [8]: < 10 nM
- GI50 [9]: < 10 nM
- TGI [9]: > 33900 nM
- GI50 [10]: < 10 nM
- TGI [10]: 18900 nM
- GI50 [11]: < 10 nM
- TGI [11]: 8130 nM
- GI50 [12]: < 10 nM
- TGI [12]: 4620 nM
- GI50 [13]: < 10 nM
- TGI [13]: < 10 nM
- GI50 [14]: < 10 nM
- TGI [14]: 22200 nM
- GI50 [15]: < 10 nM
- TGI [15]: 25900 nM
- GI50 [16]: < 10 nM
- TGI [16]: < 14.9 nM
- GI50 [17]: < 10 nM
- TGI [17]: 10500 nM
- GI50 [18]: < 10 nM
- TGI [18]: 26100 nM
- GI50 [19]: 1410 nM
- TGI [19]: 37900 nM
- GI50 [20]: 170 nM
- TGI [20]: 10500 nM
- GI50 [21]: 475 nM
- TGI [21]: > 78800 nM
- GI50 [22]: < 10 nM
- TGI [22]: 507 nM
- GI50 [23]: < 10 nM
- TGI [23]: > 39200 nM
- GI50 [24]: < 10 nM
- TGI [24]: 15000 nM
- GI50 [25]: < 10 nM
- TGI [25]: 31300 nM
- GI50 [26]: < 10 nM
- TGI [26]: 31100 nM
- GI50 [27]: 191 nM
- TGI [27]: 13600 nM
- GI50 [28]: < 22.6 nM
- TGI [28]: 54700 nM
- GI50 [29]: < 10 nM
- TGI [29]: > 69900 nM
- GI50 [30]: < 10 nM
- TGI [30]: 18900 nM
- GI50 [31]: < 10 nM
- TGI [31]: 20900 nM
- GI50 [32]: 113 nM
- TGI [32]: 21500 nM
- GI50 [33]: < 10 nM
- TGI [33]: 2830 nM
- GI50 [34]: < 10 nM
- TGI [34]: 6600 nM
- GI50 [35]: < 10 nM
- TGI [35]: 14800 nM
- GI50 [36]: < 11 nM
- TGI [36]: 1740 nM
- GI50 [37]: 7980 nM
- TGI [37]: 44300 nM
- GI50 [38]: < 10 nM
- TGI [38]: > 100000 nM
- GI50 [39]: < 10 nM
- TGI [39]: < 10 nM
- GI50 [40]: 128 nM
- TGI [40]: 1560 nM
- GI50 [41]: < 10 nM
- TGI [41]: 23300 nM
- GI50 [42]: < 10 nM
- TGI [42]: 14800 nM
- GI50 [43]: < 10 nM
- TGI [43]: 9560 nM
- GI50 [44]: < 10 nM
- TGI [44]: < 10 nM
- GI50 [45]: < 10 nM
- TGI [45]: 1160 nM
- GI50 [46]: < 10 nM
- TGI [46]: < 10 nM
- GI50 [47]: 20700 nM
- TGI [47]: 61600 nM
- GI50 [48]: < 10 nM
- TGI [48]: 10700 nM
- GI50 [49]: < 10 nM
- TGI [49]: 963 nM
- GI50 [50]: < 10 nM
- TGI [50]: 5750 nM
- GI50 [51]: < 10 nM
- TGI [51]: > 38500 nM
- GI50 [52]: < 10 nM
- TGI [52]: 26300 nM
- GI50 [53]: < 20.7 nM
- TGI [53]: 32700 nM
- GI50 [54]: 36.7 nM
- TGI [54]: 1640 nM
- GI50 [55]: < 10 nM
- TGI [55]: > 34000 nM
- GI50 [56]: < 10 nM
- TGI [56]: > 35000 nM
- GI50 [57]: < 10 nM
- TGI [57]: 23300 nM
